Patent US12017917B2, “Composition, particulate materials and methods for making particulate materials” (THE UNIVERSITY OF QUEENSLAND, priority 2015, dated 2024)

Experiments:
[1] = system: Escherichia coli (E. coli); assay: In vitro antibacterial activity of VAN formulations (OD 600 nm); format: cell-based; conditions: VAN content 25 μg ml^−1, after 18 h
Protocol: The use of nanoparticles as a delivery vehicle for antibiotics provides a promising strategy through prolonged drug circulation half-life, increased availability of drugs interacting with membrane molecules and promoted sustained drug release. VAN is an antibiotic useful for the treatment of a number of bacterial infections since it inhibits the cell wall synthesis in susceptible bacteria. […] The in vitro antibacterial activity of VAN, MHS200-VAN and RMHS200-VAN was evaluated by monitoring the optical density (OD) at 600 nm of a bacterial suspension. E. coli (1×10^6 CFU mL^−1) was incubated in Luria-Bertani (LB) medium in a 1.5 ml centrifuge tube at various concentrations of VAN for 18 h. […] This value reduced to 20 μg ml^−1 for RMHS200-VAN which is lower than the dosage used with VAN conjugated MCM-41 (200 μg ml^−1) in in-vitro E. coli culture at 18 h. In a separate experiment, MHS200-VAN, RMHS200-VAN and free VAN with the same VAN content of 25 μg ml^−1 were incubated with 1×10^6 CFU mL^−1 E. Coli in LB media and OD was measured as a function of time.

[2] = UV protection of ivermectin (HPLC); format: physicochemical; conditions: free or loaded into particles, UV irradiation 3 h
Protocol: To investigate the UV protection properties of the silica particles toward ivermectin these nano-formulations as well as pure (free) ivermectin were treated under UV irradiation for 3 h. The samples before and after UV irradiation were analysed using high performance liquid chromatography (HPLC) to identify their compositions. […] This may result from the fact that ivermectin is only partially loaded into the internal cavity of the MSHS-SS particles, resulting in only partial protection.

E. coli [3] = assay: In vitro antibacterial activity of lysozyme formulations (OD); format: cell-based; conditions: E. coli 5×10^6 CFU mL^−1, 24 h
Protocol: The in vitro antibacterial activity of free lysozyme and lysozyme loaded silica particles formulated using the above procedure were compared by the optical density (OD) measurement. E. coli (5×10^6 CFU mL^−1) was incubated with various concentrations of lysozyme and corresponding lysozyme loaded silica particles for 24 h. […] In contrast, the MIC of free lysozyme towards E. coli cannot be achieved even at the concentration as high as […].

E. coli [4] = assay: Long-term bacterial inhibition, bacteria kinetic test under batch culture; format: cell-based; conditions: lysozyme 700 μg·mL^−1, 3 days
[5] = Release test of nano-spinosad in water (UV-Vis 248 nm); format: physicochemical; conditions: 25° C.
Protocol: In a release test, 2.67 mg nano-spinosad-X (containing 1 mg spinosad) was dispersed in 1 ml distilled water, respectively. The mixtures were kept at 25° C. incubator at 200 rpm. The supernatants were collected at different time and the released amount of spinosad was measured and evaluated by using a UV-Vis spectrophotometer at a wavelength of 248 nm. The release amount of pure spinosad in water was also tested using the same procedure.
The release profile of both pure spinosad and nano-spinosad were tested in water. […] On the other hand, for pure spinosad, only 2.4% of spinosad was released at 5 min while the cumulative release is less than 8% even at 540 min. […] Consequently, the release behaviour of spinosad is improved compared to the pure spinosad. The fast release of a higher concentration of spinosad is expected to be beneficial for the development of an “effective-immediately” nano-spinosad formulation.

[6] = system: cattle tick, Rhipicephalus microplus; assay: Larval Immersion Test on cattle tick larvae; format: in vivo; conditions: Assay 3, 24 h
Protocol: The in vitro effects of spinosad and nano-spinosad on the cattle tick, Rhipicephalus microplus were evaluated. The test was conducted at Biosecurity Sciences Laboratory (Queensland Government) using a standard Larval Immersion Test using organic solvent to extract the actives.
The test was conducted at Biosecurity Sciences Laboratory (Queensland Government) using a standard Larval Immersion Test. In the Larval Immersion Test, both spinosad and nano-Spinsad were firstly dissolved in organic solvent (2% Triton X-100 in acetone) to extract the actives for stock solution (10 mg/ml) and then be diluted in water. […] Three assays were conducted to narrow the LC ranges.

[7] = UV-stability test of nano-spinosad (HPLC); format: physicochemical; conditions: UV 365 nm, 2 h
Protocol: In this test, 1.2 mg pure spinosad and 4.2 mg nano-spinosad-0.4 (containing 1.2 mg spinosad) were added in two transparent quartz containers, respectively. The using of quartz containers is to minimized the shielding of UV light from the containers. Each of the sample was placed under the UV light with a wavelength of 365 nm and power of 17.77 mV cm^−3. All samples were irradiated by the UV light for 2 hours. After the irradiation, the spinosad and its degradation products were extracted by acetonitrile (ACN) for three times and the final concentration was diluted to. 0.5 mg/ml dispersed in 1 ml distilled water. The UV degradation conditions of both pure spinosad and nano-spinosad-0.4 were tested by high-performance liquid chromatography (HPLC) using ACN as the mobile phase.
The UV stability of nano-spinosad was studied. Both spinosad and nano-spinosad were irradiated under UV light (wavelength 365 nm, 17.77 mV/cm^3) for 2 h followed by HPLC which was used to monitor the product after UV treatment utilizing ACN as the extraction media and mobile phase. […] An additional peak at retention time of 1.5 min was also observed in the pure spinosad group, which can be attributed to the degraded product. This observation is in accordance with literature reports, indicating spinosad itself is UV labile.

Compound: CN[C@H](CC(C)C)C(=O)N[C@H]1C(=O)N[C@@H](CC(N)=O)C(=O)N[C@H]2C(=O)N[C@H]3C(=O)N[C@H](C(=O)N[C@H](C(=O)O)c4cc(O)cc(O)c4-c4cc3ccc4O)[C@H](O)c3ccc(c(Cl)c3)Oc3cc2cc(c3O[C@@H]2O[C@H](CO)[C@@H](O)[C@H](O)[C@H]2O[C@H]2C[C@](C)(N)[C@H](O)[C@H](C)O2)Oc2ccc(cc2Cl)[C@H]1O [free VAN, vancomycin]
- bacterial growth over time (OD) [1]: re-growth of bacteria

Compound: ivermectin [Free ivermectin]
- degradation of ivermectin after UV irradiation (HPLC) [2]: fully degraded

Compound: lysozyme [free lysozyme]
- MIC towards E. coli (E. coli [3]): > 2 mg
- bacterial growth over time (OD) (E. coli [4]): time dependent bacterial growth

Compound: spinosad
- spinosad released ([5]; at 5 min): 2.4%
- cumulative release of spinosad ([5]; at 540 min): less than 8%
- LC50 value to larval cattle ticks [6]: 54 ppm
- LC99 value to larval cattle ticks [6]: 196 ppm
- UV degradation (HPLC degradation peak) [7]: UV labile
